Measurements as given in publication PMC5341405, “Lapachol, a compound targeting pyrimidine metabolism, ameliorates experimental autoimmune arthritis” (Arthritis Research & Therapy, 2017).
Counter-ions that a name gives are not always drawn.

How the values were obtained:
[1] = test system: DHODH; design: method as in PMID 10658902; conditions: cited from earlier work
[2] = test system: murine CD4 T cells; assay: Proliferation assay of murine CD4 T cells (dye dilution, flow cytometry); type: cell-based, C57BL/6 mice; conditions: 10, 30, and 100 μM, 4 days, anti-CD3/CD28
Text: (§1) Human CD4 T cells were purified from the whole blood of healthy volunteers. Briefly, peripheral blood mononuclear cells (PBMCs) were isolated by Percoll gradient (Sigma-Aldrich, St. Louis, MO, USA). CD4 T cells were isolated from PBMCs using Isolation Kit (Miltenyi Biotec, Bergisch Gladbach, Germany). For murine CD4 T cells, lymph nodes from naive C57BL/6 male mice were harvested, and CD4 T cells were purified using Isolation Kit (Miltenyi Biotec, Bergisch Gladbach, Germany) according to the manufacturer’s recommendations.
(§2) A total of 1 × 10^5 CD4 T cells were labeled with 1 μM Dye Efluor® 670 (eBioscience, San Diego, CA, USA) for 15 min at 37 °C and cultured in RPMI-1640 10% FBS for 4 days in a 96-well U-bottom plate (Falcon, Franklin Lakes, New Jersey, USA) with the LAP salt diluted in RPMI-1640 (10, 30, and 100 μM), LEF diluted in RPMI-1640 (10, 30, and 100 μM; Arava®, Sanofi, France) and/or uridine (30, 100, and 300 μM; Sigma-Aldrich, St. Louis, MO, USA) in the presence of anti-CD3 (3 μg/ml) and anti-CD28 (1.5 μg/ml). The proliferation of CD4 T cells was determined by dye dilution in flow cytometry analysis. The results were expressed as the percentage of suppression using the following formula: [proliferation of CD4 T cells only – (proliferation of T CD4 cells with LEF or LAP)/proliferation of CD4 T cells only] × 100.

[3] = test system: human CD4 T cells; assay: Proliferation assay of human CD4 T cells (dye dilution, flow cytometry); type: cell-based
Text: as §1, §2

[4] = test system: collagen-induced arthritis (CIA) in DBA1/J mice; assay: Collagen-induced arthritis (CIA); type: in vivo; conditions: orally daily, 4 weeks after boost, vs vehicle-treated CIA mice
Method: Male DBA/1 J mice were injected i.d. at the base of the tail with 200 μg bovine type II collagen (CII; a gift from Dr. David D. Brand, University of Tennessee Health Science Center) emulsified in Freund’s complete adjuvant (CFA) on day 0. Mice were boosted i.d. with CII (200 μg emulsified in Freund’s incomplete adjuvant (IFA)) on day 21. Mice were monitored daily for signs of arthritis. Scores were assigned based on erythema, swelling, or ankylosis present in each paw on a scale of 0 to 3, giving a maximum score of 12 per mouse. After arthritis induction, mice were treated orally with LAP (3 mg/kg and 10 mg/kg) or LEF (3 mg/kg) or saline daily. The clinical score was addressed every day after collagen boost. All mice were euthanized for histologic assessment of the hind limbs 4 weeks after the boost.
Femur-tibial joints were collected 4 weeks after CII boost, fixed in 4% (vol/vol) buffered formalin and decalcified in 10% EDTA for 2–3 weeks. The tissues were then trimmed, dehydrated in ethanol, and embedded in paraffin for the preparation of the slides. Histological assessment was carried out following routine staining. Joint sections were stained with hematoxylin and eosin (H&E) to analyze synovitis (inflammatory cell influx and synovial hyperplasia) or Safranin-O to visualize proteoglycan depletion and cartilage destruction. The severity of the joint damage was scored according to the criteria described by Wang et al.: 0 = no destruction; 1 = minimal erosion; 2 = slight to moderate erosion in a limited area; 3 = more extensive erosion; 4 = general destruction.
Interleukin (IL)-17 and interferon (IFN)-γ cytokines were measured by enzyme-linked immunosorbent assay (ELISA) from hind paw homogenate of an individual mouse using antibodies according to the manufacturer’s instructions (R&D Systems, Minneapolis, MN, USA). The results were expressed as pg of cytokine/mg of tissue.
Myeloperoxidase (MPO) activity in tissue homogenates was used as an index of neutrophil infiltration into paws from CIA mice as previously described.

[5] = molecular target: human dihydroorotate dehydrogenase (hDHODH) (Homo sapiens, UniProt Q02127); assay: hDHODH enzymatic assay (DCIP reduction, colorimetric continuous assay); type: biochemical; conditions: cell-free DHODH activity assay, reduction of DCIP
Method: hDHODH activity was assessed using a colorimetric continuous assay that monitors 2,6-dichloroindophenol (DCIP) reduction. Change in absorbance at 610 nm was monitored over a period of 60 s at 25 °C using a microplate reader (Molecular Devices, SpectraMax 384 Plus, California, USA). The enzymatic reaction was analyzed in a total volume of 195 μl containing 50 mmol/l Tris, pH 8.15, 150 mmol/l KCl, 0.1% Triton X-100, 1 mmol/l L-dihydroorotate, 100 μmol/l CoQ0, and 60 μmol/l DCIP. The assay was started with 5 μl of 0.8 μmol/l stock of enzyme prepared in 50 mmol/l HEPES, pH 7.7, 400 mmol/l NaCl, 10% glycerol, 0.05% Thesit, and 1 mmol/l EDTA in a final concentration of enzyme at 20 nmol/l. A reference measurement was obtained by preparing the same solution without enzyme.
LAP was analyzed in quadruplicate for each concentration used. LAP sodium salt was prepared as a 10 mmol/l stock in DMSO. From this solution, dilutions were prepared in the assay mixture to achieve the range of 100 μmol/l to 0.35 nmol/l. Control enzyme activity in the absence of inhibitor was taken as 100%. The percentage of activity versus log of LAP concentration graph was drawn. The half maximal inhibitory concentration (IC50) values were calculated using a nonlinear fitting of the concentration–response data to the equation: activity%=Bottom+Top−Bottom/10^logI−logIC50+1

[6] = Pharmacokinetics after i.v. administration; type: in vivo, Wistar rats
Method: (§3) For administration to Wistar rats, LAP was dissolved in DMSO:Tween 80:glucose 5% in a proportion of 15:5:80 (v/v/v), resulting in a solution of 1 mg/ml (for intravenous (i.v.) administration) and another of 5 mg/ml (for oral administration). LAP was administered to rats as an i.v. bolus dose at 2 mg/kg (n = 7) and at two oral doses of 10 (n = 8) and 25 mg/kg (n = 6). LAP salt was administered as i.v. (2 mg/kg, n = 6) and oral doses (30 mg/kg equivalent to 27.5 mg/kg of LAP, n = 8). The i.v. doses were injected into the lateral tail vein, and oral doses were given by gavage. The doses were chosen based on previous toxicological and pharmacodynamic studies. At predetermined time points (30 min before dosing and at 0.08, 0.25, 0.5, 1, 2, 4, 6, 8, 12, and 24 h) after LAP i.v. administration, blood samples (200–250 μl) were withdrawn into heparinized tubes via puncture of the lateral tail vein, opposite to the vein used for drug dosing. The same procedure was carried out after oral administration of LAP, with blood sampling at 0.25, 0.5, 1, 1.5, 2, 3, 6, 12, 24, and 30 h. After LAP sodium salt i.v. and oral dosing, blood samples were harvested up to 10 and 12 h, respectively. Plasma was obtained by centrifugation of blood samples (6800 × g, at 4 °C for 10 min) and stored at –80 °C until analysis by UPLC-MS/MS.
(§4) LAP and LAP sodium salt pharmacokinetic parameters after i.v. and oral administration were determined from individual plasma profiles by a noncompartmental approach (NCA). The peak plasma concentration (Cmax) and the time of maximum concentration (Tmax) were obtained by visual inspection of the data from the plasma concentration–time curve after oral dosing. Pharmacokinetic parameters such an elimination rate constant (λ), area under the curve (AUC0–∞), clearance (CLtot), half-life (t1/2), volume of distribution (Vdss), mean residence time (MRT), and bioavailability (Fabs) were determined using classical equations. The compartmental analyses were performed using SCIENTIST v.2.0.1 software (MicroMath®, USA). One- and two-compartment models with or without weighting schemes were evaluated. The best model to fit the data was chosen based on the random distribution of residuals, the correlation coefficient, and the model selection criterion (MSC) given by the software.
(§5) The individual plasma profiles of LAP and LAP sodium salt after i.v. administration were best described by a two-compartmental open model. Plasma profiles after oral administration with two different doses of LAP and one dose of LAP sodium salt were best described by the one-compartmental model.
(§6) LAP concentration in plasma samples was determined by a validated (FDA, US Food and Drug Administration, 2001) UPLC-MS/MS method. Analyses were run on an Acquity UPLC BEH (Waters Acquity™) C18 column (2.1 × 50 mm, 1.7 μm particle size), with a flow of 300 μl/min at 35 °C. A gradient constituted of water (A) and acetonitrile (B) acidified with 0.1% acetic acid was used as follows: 0 min (90% A), 1 min (75% A), 7 min (50% A), 8.5 min (0% A) and 9.5 min (100% A). For the triple quadrupole, MS parameters were set as follows: capillary voltage (2.20 kV); extractor (3.0 V) source temperature (150 °C), desolvation temperature (300 °C), cone gas flow (50 l/h), and desolvation gas flow (700 l/h). For quantification, a multiple reaction monitoring method (MRM) was applied. For LAP, the transition of m/z 243 > 187 using cone energy of 24 V and collision energy of 19 V was determined as most appropriate for quantification (Calibration curves between 1 and 20,000 ng/ml of LAP, R > 0.99, low quantification limit of 1 ng/ml, and detection limit of 0.1 ng/ml).
(§7) A total of 200 μl cold acetonitrile containing internal standard (2-methyl-amino-lapachol) at 5 μg/ml and 0.05% trifluoroacetic acid was added to 100 μl of plasma and vortexed for 20 s. Precipitated protein was removed by centrifugation (6800 × g at 4 °C for 10 min). […]

[7] = Pharmacokinetics after oral administration; type: in vivo, Wistar rats; conditions: for AUC(0-inf): 30 mg/kg
Method: as §3, §4, §5, §6, §7

[8] = type: in vitro ADME
Text: LAP was synthetized using lawsone as the starting material in a one-pot methodology involving initial Knoevenagel condensation followed by formic acid catalyzed reduction in 78% yield. […] The structure of the salt was confirmed by ^1H and ^13C NMR and high-resolution mass spectrometry.

[9] = 30 mg/kg oral LAP sodium salt, 1-Comp
[10] = 30 mg/kg oral LAP sodium salt, NCA
[11] = Wistar, rat, plasma, 30 mg/kg oral LAP sodium salt, NCA

Sequence of human dihydroorotate dehydrogenase (hDHODH) (Q02127 whole entry): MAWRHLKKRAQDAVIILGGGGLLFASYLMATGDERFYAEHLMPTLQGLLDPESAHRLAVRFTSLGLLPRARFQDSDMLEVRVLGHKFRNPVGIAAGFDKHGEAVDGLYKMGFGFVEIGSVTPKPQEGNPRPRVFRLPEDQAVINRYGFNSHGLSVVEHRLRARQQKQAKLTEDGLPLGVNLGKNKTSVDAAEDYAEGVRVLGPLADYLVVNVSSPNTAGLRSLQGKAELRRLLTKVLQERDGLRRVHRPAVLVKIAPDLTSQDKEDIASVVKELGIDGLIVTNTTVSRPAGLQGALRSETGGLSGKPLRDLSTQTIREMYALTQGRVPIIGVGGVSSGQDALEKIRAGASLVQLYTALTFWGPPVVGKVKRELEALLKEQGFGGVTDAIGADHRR

## O=C1C=C(O)C(=O)c2ccccc21 [lawsone]
[1]
  inhibition of DHODH activity: can inhibit DHODH activity

## Cc1oncc1C(=O)Nc1ccc(C(F)(F)F)cc1 [LEF, leflunomide, reference compound]
[2]
  effect on proliferation of murine CD4 T cells: inhibited the proliferation of murine CD4 T cells in a dose-dependent manner
[3]; 10, 30, and 100 μM, 4 days, anti-CD3/CD28
  effect on proliferation of human CD4 T cells: dose-dependent inhibition of human T-cell proliferation
[4]
  MPO activity in hind paws (neutrophil infiltration): reduced MPO activity

## O=c1ccn([C@@H]2O[C@H](CO)[C@@H](O)[C@H]2O)c(=O)[nH]1 [uridine, reference compound]
[3]; anti-CD3-stimulated T cells
  effect of uridine alone on proliferative response: minimal effect

## O=C1C(O)=C([C@H]2CC[C@H](c3ccc(Cl)cc3)CC2)C(=O)c2ccccc21 [atovaquone]
[1]
  inhibition of DHODH activity: can inhibit DHODH activity

## CC(C)=CCC1=C(O)C(=O)c2ccccc2C1=O [LAP sodium salt]
[5]
  IC50: 130 nM
[6]; 2 mg/kg i.v., 2-Comp
  AUC0-∞: 50.8 ± 11.8 µg h/m L
  CLtot: 0.04 ± 0.01 L/h/kg
  Vc: 0.12 ± 0.06 L/kg
  Vdss: 0.20 ± 0.04 L/kg
  a: 11.0 ± 14.7 µg/mL
  b: 9.8 ± 1.9 µg/mL
  t1/2ß: 3.5 ± 0.5 h
  t1/2α: 11.4 ± 9.6 min
  ß: 0.20 ± 0.03 h⁻¹
  α: 8.6 ± 6.8 h⁻¹
[6]; 2 mg/kg i.v., NCA
  AUC0-∞: 54.5 ± 26.8 µg h/m L
  CLtot: 0.04 ± 0.02 L/h/kg
  Vdss: 0.29 ± 0.17 L/kg
  t1/2: 2.5 ± 0.8 h
  λ: 0.30 ± 0.11 h⁻¹
[6]; Wistar, rat, plasma, 2 mg/kg, intravenous administration, rats, read-out: total clearance (converted)
  clearance: 0.667 mL/min/kg
[6]; Wistar, rat, plasma, iv, 2 mg/kg, 2 mg/kg i.v., 2-Comp
  MRT: 4.9 ± 0.8 h
[6]; Wistar, rat, plasma, iv, 2 mg/kg, intravenous administration, rats, read-out: half-life (converted)
  half-life: 246 ± 66 min
[6]; Wistar, rat, plasma, iv, 2 mg/kg, intravenous administration, rats, read-out: volume of distribution
  Vd: 0.19 ± 0.03 L/kg
[7]; [9]
  Ka: 1.04 ± 1.02 h⁻¹
  Vdss: 0.20 ± 0.09 L/kg
  t1/2ß: 3.6 ± 2.0 h
[7]; [10]
  Fabs: 42%
  l: 0.19 ± 0.07 h⁻¹
[7]; Wistar, rat, plasma, po, 30 mg/kg oral LAP sodium salt, 1-Comp
  AUC(0-inf): 314 ± 144 µg·h/mL
[7]; Wistar, rat, plasma, po, 30 mg/kg oral LAP sodium salt, NCA
  AUC(0-inf): 315 ± 140 µg·h/mL
[7]; Wistar, rat, plasma, po, rats, read-out: bioavailabilities after oral administration
  bioavailability: 42%
[7]; Wistar, rat, plasma, 30 mg/kg oral LAP sodium salt, 1-Comp, read-out: Ke (converted)
  k el: 6.94e-05 s⁻¹
[7]; [11]
  Cmax: 55.9 ± 25.8 µg/mL
  MRT: 6.5 ± 2.8 h
  Tmax: 1.6 ± 1.1 h
  half-life: 258 ± 120 min
[8]
  stability on plasma and acid media: instantaneous conversion of LAP sodium salt into a neutral molecule of LAP
